Assay results from patent US9532569B2 (INSTITUT NATIONAL DE LA RECHERCHE AGRONOMIQUE, priority 2012, dated 2017).

Legend:
Striga hermonthica = assay: Germinative activity on parasitic plants; type: in vivo; settings: counted after 4 days, 30° C.
Method: (§1) In this example, the germinative activity of the compounds in accordance with the invention (IIa) and (IIIb) and of the comparative compound GR24 was evaluated on the parasitic plants: Orobanche cumana, Orobanche minor, Striga hermonthica, Phelipanche ramosa (pv T and pv C).
(§2) The test protocol used was the following.
Seeds of Striga hermonthica (Del.) Benth were collected at Gadarif, Eastern Sudan, in 1999.
(§3) The seeds are stored dry in the dark at 25° C.
(§4) The compounds to be studied were resuspended in acetone at 10 mmol·l^−1, then diluted with water to 1 mmol·l^−1 (water/acetone; v/v; 99/1). Dilutions of 1×10^−3 mol·l^−1 to 1×10^−15 mol·l^−1 were then prepared in a water/acetone mixture (v/v; 99/1). Seeds of parasitic plants were surface-sterilized according to the protocol described in the publication by Vieira Dos Santos et al. (2003), then resuspended in sterile water (10 g·l^−1) and distributed on a 96-well plate (in a proportion of 50 μl, i.e. approximately 100 seeds per well). After preconditioning (7 days, 21° C., in the dark, plate hermetically sealed, except for the seeds of S. hermonthica, which were preconditioned at 30° C.), the compounds to be studied were added and the volumes adjusted to 100 μl with water (water/acetone; v/v; 999/1).
In a plate, a range of concentrations from 10^−13 mol·l^−1 to 10^−6 mol·l^−1 was applied for GR24 and (IIa) and from 10^−12 to 10^−5 mol·l^−1 for (IIIb). Controls were carried out with a water/acetone mixture (v/v; 999/1) and without seeds. The plates were incubated so as to allow germination (21° C., in the dark or 30° C. for Striga hermonthica.). After 4 days, the seeds which had germinated were counted under a stereomicroscope (SZX10, Olympus). […] For each compound tested, dose-response curves (g=f(c), where g is the germination percentage and c the concentration (mol·l^−1)), and the EC50 (median effective concentration) were modeled on the basis of a 4-parameter logistic curve calculated with SigmaPlot® 10.0.
(§5) The percentages of maximum germination induced by the compounds tested for each parasitic plant were determined.

pea mutant rms1 = assay: Inhibition of branching in the pea, application directly on the axillary bud; type: in vivo, Pisum sativum L.; settings: Experiment 7, FIG. 9; 0.1 nM, 1 nM, 10 nM and 100 nM
pea rms4 mutant = type: in vivo, Pisum sativum L.
Method: The protocol used is in accordance with that described in example 4 above. Compound concentrations of 100 nM and 3 μM were tested. A negative control consisting of the solvent alone (<<CTL 0>>) was also tested.
The number of dead buds following the treatment with 3 μM of compound was also determined after 8 days of treatment (on groups of 48 plants).

Phelipanche ramosa pv T = assay: Germinative activity on parasitic plants; type: in vivo; settings: counted after 4 days
Method: as §1, §2
(§6) Two populations of Phelipanche ramosa were used in this study, pathovar (pv) C and T, described in the publication by Benharrat et al. (2005). Seeds of Phelipanche ramosa pathovar C were collected at Saint Martin de Fraigneau, France, on broomrapes parasitizing winter oilseed rape (Brassica napus L.) in 2005 and seeds of Phelipanche ramosa pathovar T were collected in Sarthe, France, on broomrapes developing on hemp (Cannabis sativa L.) in 2007.
as §3, §4
(§7) In a plate, a range of concentrations from 10^−13 mol·l^−1 to 10^−6 mol·l^−1 was applied for GR24 and (IIa) and from 10^−12 to 10^−5 mol·l^−1 for (IIIb). Controls were carried out with a water/acetone mixture (v/v; 999/1) and without seeds. The plates were incubated so as to allow germination (21° C., in the dark or 30° C. for Striga hermonthica.). After 4 days, the seeds which had germinated were counted under a stereomicroscope (SZX10, Olympus). The seeds were considered to have germinated when the radicle was sticking out of the seed tegument. Each germination test was repeated at least 3 times. For each compound tested, dose-response curves (g=f(c), where g is the germination percentage and c the concentration (mol·l^−1)), and the EC50 (median effective concentration) were modeled on the basis of a 4-parameter logistic curve calculated with SigmaPlot® 10.0.
as §5

Phelipanche ramosa pv C = assay: Germinative activity on parasitic plants; type: in vivo; settings: counted after 4 days
Method: as §1, §2, §6, §3, §4, §7, §5

pea rms1 mutants = assay: Hydroponic culture test in pea; type: in vivo, Pisum sativum L.; settings: 1 μM in hydroponic culture solution, 8 days
Method: For this example, ramosus (rms1) hyperbranched pea (Pisum sativum L.) mutants were used.
More particularly, rms1 (rms1-10) hyperbranched mutant plants were used. The nutritive solution (100%) was prepared by adding the following macronutrients to 1000 l of water: HNO3 (0.28 l), (NH4)2HPO4 (120 g), Ca(NO3)2 (40 g), Mg(NO3)2 (140 g), KNO3 (550 g), (NH4)2MoO4 (0.05 g), H3BO3 (15 g), MnSO4.H2O (2 g), ZnSO4.7H2O (1 g), CuSO4.5H2O (0.25 g), Sequestrene® (10 g) (Fe-EDTA solution). The pea seeds were germinated in moist sand for 6 days, then placed in holes of a lid (35 holes/lid, 20 mm in diameter) of an opaque PVC pot containing the hydroponic culture solution (47 l, pH 5.8).
In a first experiment, acetone or the compound to be tested (dissolved in acetone) was added to the hydroponic culture solution so as to obtain a final concentration of 0 or 1 μM of compound to be tested and 0.01% of acetone.
The hydroponic culture solution was continually aerated by means of an aquarium pump and replaced each week. 8 days after the start of the treatment, the lengths of bud/branch (nodes 1 to 6) were measured with an electronic sliding caliper.
This experiment was carried out for the compounds according to the invention (IIa) and (IIIb), and also the GR24 compound as comparative compound. A negative control (<<CTL 0>>), corresponding to a treatment with the solvent alone, was also carried out.
The results (mean data on 20 plants), in terms of, on the one hand, length of the branches at nodes 3 to 5 and, on the other hand, plant height, are shown respectively in FIGS. 11 and 12.
The same experiment was carried out for the compound in accordance with the invention (II″g) and the comparative compound GR24. Dimethyl sulfoxide (DMSO) or the compound to be tested, dissolved in DMSO, was added to the hydroponic culture solution so as to obtain a final concentration of 0 or 3 μM of compound to be tested and 0.01% of DMSO.
The results (mean data on 10 to 12 plants), in terms, on the one hand, of length of the branches at nodes 3 to 4 and, on the other hand, of plant height, are shown respectively in FIGS. 13 and 14.

CC1=C(C)C(Sc2ccc(Cl)cc2)OC1=O (centres unmarked) [Compound (IIa), 5-((4-chlorophenyl)thio)-3,4-dimethylfuran-2(5H)-one]
Percentage of maximum germination induced (Striga hermonthica): no (no significant germination compared to the negative control (<2%)) | inhibitory activity on bud growth at node 4 (length of bud/branch 8 days after treatment at node 4) (pea mutant rms1): equivalent to that of GR24 at the strongest concentrations, and slightly better at the lowest concentration of 0.1 nM | length of bud/branch at node 3 (toxicity) (pea rms4 mutant; 100 nM and 3 μM, 8 days after treatment at node 3, FIG. 15): absence of effects of the compounds in accordance with the invention (IIa) and (IIIb) compared with a negative control, and between the two treatment doses | number of dead buds after treatment (pea rms4 mutant; 3 μM, 8 days of treatment, groups of 48 plants, FIG. 16): no significant difference is notable regarding the number of dead buds following the treatment | Percentage of maximum germination induced (Phelipanche ramosa pv T): 72 ± 2% | Percentage of maximum germination induced (Phelipanche ramosa pv C): 27 ± 4% | length of the branches at nodes 3 to 5 (pea rms1 mutants; FIG. 11): activity of the compounds in accordance with the invention (IIa) and (IIIb) on all the branches of nodes 3 to 5 | plant height (pea rms1 mutants; FIG. 12): significant effect on plant height is also demonstrated, comparable between the comparative compound GR24 and the compound in accordance with the invention (IIa)
